Measured values as given in patent publication US10829473B2, “Modulators of the cystic fibrosis transmembrane conductance regulator protein and methods of use” (AbbVie Overseas S.Á.R.L., priority 2017, dated 2020).
pEC50: −log10 of the molar value. Where two headings read alike, the source gives them in different places. Marks after values point to notes of the source that are not given here.

Target: T1, F508delCFTR (Homo sapiens, UniProt P13569, DEL508-508)
T1 construct: expressed in transfected cells; host or cells: CFBE41o- human lung derived epithelial cells (CFBE41o-F508delCFTR-HRP), doxycycline-inducible
T1 sequence (P13569 with tags, fused parts or gaps DEL508-508): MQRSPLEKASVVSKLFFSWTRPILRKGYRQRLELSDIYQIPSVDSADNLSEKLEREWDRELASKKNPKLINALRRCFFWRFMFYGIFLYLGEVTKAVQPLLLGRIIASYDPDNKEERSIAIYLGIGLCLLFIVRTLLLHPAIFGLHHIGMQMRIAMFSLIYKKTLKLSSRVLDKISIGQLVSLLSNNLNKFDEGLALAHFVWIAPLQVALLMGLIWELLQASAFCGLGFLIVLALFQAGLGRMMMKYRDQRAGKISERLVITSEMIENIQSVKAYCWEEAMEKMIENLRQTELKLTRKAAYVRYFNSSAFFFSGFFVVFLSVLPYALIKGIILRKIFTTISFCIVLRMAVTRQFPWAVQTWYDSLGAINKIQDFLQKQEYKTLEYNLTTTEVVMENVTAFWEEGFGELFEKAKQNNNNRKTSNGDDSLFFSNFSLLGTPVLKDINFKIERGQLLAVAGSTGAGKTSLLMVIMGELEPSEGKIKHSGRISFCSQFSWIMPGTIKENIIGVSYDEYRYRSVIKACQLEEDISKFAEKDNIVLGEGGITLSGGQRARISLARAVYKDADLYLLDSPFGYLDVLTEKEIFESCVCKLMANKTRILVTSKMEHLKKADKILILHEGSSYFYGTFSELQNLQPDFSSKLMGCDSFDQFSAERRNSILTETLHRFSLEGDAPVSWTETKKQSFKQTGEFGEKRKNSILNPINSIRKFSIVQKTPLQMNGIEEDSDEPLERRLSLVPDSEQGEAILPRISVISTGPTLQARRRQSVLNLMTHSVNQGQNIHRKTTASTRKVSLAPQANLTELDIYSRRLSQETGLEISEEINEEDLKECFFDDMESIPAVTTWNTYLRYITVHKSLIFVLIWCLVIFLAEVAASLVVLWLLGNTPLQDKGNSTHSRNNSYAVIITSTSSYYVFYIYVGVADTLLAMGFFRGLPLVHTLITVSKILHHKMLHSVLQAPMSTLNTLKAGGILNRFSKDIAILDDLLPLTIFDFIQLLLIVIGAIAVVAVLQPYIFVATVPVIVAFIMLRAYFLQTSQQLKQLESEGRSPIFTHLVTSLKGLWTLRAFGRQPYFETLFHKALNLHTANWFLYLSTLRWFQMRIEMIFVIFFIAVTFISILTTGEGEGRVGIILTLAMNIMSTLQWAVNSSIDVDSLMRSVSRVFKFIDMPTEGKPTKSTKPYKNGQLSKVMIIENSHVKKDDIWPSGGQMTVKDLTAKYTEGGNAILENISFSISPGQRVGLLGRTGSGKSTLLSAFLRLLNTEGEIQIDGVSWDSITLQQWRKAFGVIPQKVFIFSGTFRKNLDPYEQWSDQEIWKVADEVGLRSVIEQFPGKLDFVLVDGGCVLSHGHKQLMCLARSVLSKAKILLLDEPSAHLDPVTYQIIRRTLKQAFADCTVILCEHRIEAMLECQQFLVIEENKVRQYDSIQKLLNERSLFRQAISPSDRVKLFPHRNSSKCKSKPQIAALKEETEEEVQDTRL
Test: Cell Surface Expression-Horse Radish Peroxidase (CSE-HRP) Assay;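 on EC50 (with co-corrector): co-corrector chromenyl benzoic acid corrector at 2 or 3 µM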;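 on Maximum % activity (without co-corrector): % of on-plate positive control chromenyl benzoic acid corrector at 2 or 3 µM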
Type: cell-based
Details: for Maximum % activity (with co-corrector) / Emax: maximum at any tested concentration; for Emax: read-out: Maximum % activity (without co-corrector)
How it was run: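 Corrector compounds were given as 8-point 3-fold series from 20 or 30 μM, with or without a 2 μM co-corrector, for 18-24 h at 33 °C. Surface HRP was read by luminol luminescence as % of positive control; variable-Hill-slope sigmoidal fitting gave EC50 from triplicate plates.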

[1] = test compound alone, without co-corrector, read-out: EC50 (without co-corrector)
[2] = with co-corrector, read-out: EC50 (with co-corrector)
[3] = test compound with co-corrector
[4] = test compound with co-corrector, read-out: EC50 (with co-corrector)
[5] = test compound without co-corrector
[6] = test compound without co-corrector, read-out: EC50 (without co-corrector)

Compound | pEC50 [1] | Maximum % activity (with co-corrector) (with co-corrector) | pEC50 [2] | Emax (without co-corrector) [%] | Maximum % activity (with co-corrector) [3] | pEC50 [4] | Emax [5] [%] | pEC50 [6] | EC50 (with co-corrector) [3] | EC50 (without co-corrector) [5]
COc1ccc(C2CCC2)cc1C1(C(=O)NS(=O)(=O)c2cccc3ccc(C)nc23)CC1 [Example I-62, 1-(5-cyclobutyl-2-methoxyphenyl)-N-(2-methylquinoline-8-sulfonyl)cyclopropane-1-carboxamide] | > 5.52 | +++ (≥350) | > 5.52 | > 150 |  |  |  |  |  | 
CC(C)OC1CCN(c2ncc(C3CCC3)cc2C2(C(=O)NS(=O)(=O)c3cccc4[nH]ccc34)CC2)CC1 [Example GI-104, 1-(5-cyclobutyl-2-{4-[(propan-2-yl)oxy]piperidin-1-yl}pyridin-3-yl)-N-(1H-indole-4-sulfonyl)cyclopropane-1-carboxamide] |  |  |  |  | +++ (≥350) | > 5.52 | > 150 | > 5.52 |  | 
COc1cc(C)c(C2(C(=O)NS(=O)(=O)c3cccc4c3CCCN4)CC2)cn1 [GIII-17] |  |  |  |  | ++ (≥150 and <350) |  | 50 to 150 |  | ++^a | ++^a
COc1ccc(C)c(OC)c1C1(C(=O)NS(=O)(=O)c2cccc3[nH]ccc23)CC1 [Example I-42, 1-(2,6-dimethoxy-3-methylphenyl)-N-(1H-indole-4-sulfonyl)cyclopropane-1-carboxamide] | > 5.52 | +++ (≥350) | > 5.52 | > 150 |  |  |  |  |  | 
COc1ncc(C2(C(=O)NS(=O)(=O)c3cccc4ncccc34)CC2)c(OC)n1 [GIII-24] |  |  |  |  | + (<150) | < 5.00 | < 50 | < 5.00 |  | 
Cc1ccc2c(S(=O)(=O)NC(=O)C3(c4cc(C5CCC5)cnc4OC(C)C)CC3)cccc2n1 [Example GI-23, 1-{5-cyclobutyl-2-[(propan-2-yl)oxy]pyridin-3-yl}-N-(2-methylquinoline-5-sulfonyl)cyclopropane-1-carboxamide] | > 5.52 | +++ (≥350) | > 5.52 | > 150 |  |  |  |  |  | 
CCOc1ccc(C(C)(C)OCC)cc1C1(C(=O)NS(=O)(=O)c2cccc3nc(C)ccc23)CC1 [Example I-103, 1-[2-ethoxy-5-(2-ethoxypropan-2-yl)phenyl]-N-(2-methylquinoline-5-sulfonyl)cyclopropane-1-carboxamide] | > 5.52 | +++ (≥350) | > 5.52 | > 150 |  |  |  |  |  | 
COc1ccc(C2CCC2)cc1C1(C(=O)NS(=O)(=O)c2cccc3ccccc23)CC1 [Example I-2, 1-(5-cyclobutyl-2-methoxyphenyl)-N-(naphthalene-1-sulfonyl)cyclopropane-1-carboxamide] | > 5.52 | +++ (≥350) | > 5.52 | > 150 |  |  |  |  |  | 
CCc1cnc(OC(C)C)c(C2(C(=O)NS(=O)(=O)c3cccc4ncccc34)CC2)c1 [Example GI-13, 1-{5-ethyl-2-[(propan-2-yl)oxy]pyridin-3-yl}-N-(quinoline-5-sulfonyl)cyclopropane-1-carboxamide] | > 5.52 | +++ (≥350) | > 5.52 | > 150 |  |  |  |  |  | 
COc1cc(C2CCC2)cc(OC)c1C1(C(=O)NS(=O)(=O)c2cccc3nc(C)ccc23)CC1 [II-69] | > 5.52 | +++ (≥350) | > 5.52 | > 150 |  |  |  |  |  | 
COc1ccc(C(C)C)cc1C1(C(=O)NS(=O)(=O)c2cccc3c2CCCN3)CC1 [II-26] | > 5.52 | +++ (≥350) | > 5.52 | > 150 |  |  |  |  |  | 
CCc1cnc(OCC(C)C)c(C2(C(=O)NS(=O)(=O)c3cccc4ncccc34)CC2)c1 [Example GI-45, 1-[5-ethyl-2-(2-methylpropoxy)pyridin-3-yl]-N-(quinoline-5-sulfonyl)cyclopropane-1-carboxamide] |  |  |  |  | +++ (≥350) | > 5.52 | > 150 | > 5.52 |  | 
O=C1Cc2cc(S(=O)(=O)NC(=O)C3(c4cccc(Cl)c4)CC3)ccc2N1 [Example III-75, 1-(3-chlorophenyl)-N-(2-oxo-2,3-dihydro-1H-indole-5-sulfonyl)cyclopropane-1-carboxamide] | < 5.00 | + (<150) | < 5.00 | < 50 |  |  |  |  |  | 
CCOc1ccc(C)cc1C1(C(=O)NS(=O)(=O)c2cccc3nc(NC)ccc23)CC1 [II-84] | > 5.52 | +++ (≥350) | > 5.52 | > 150 |  |  |  |  |  | 
Cc1cnc(N2CCCC2)c(C2(C(=O)NS(=O)(=O)c3cccc4nc(C)ccc34)CC2)c1 [GII-36, 1-[5-methyl-2-(pyrrolidin-1-yl)pyridin-3-yl]-N-(2-methylquinoline-5-sulfonyl)cyclopropane-1-carboxamide] |  |  |  |  | +++ (≥350) | 5.00 to 5.52 | 50 to 150 | 5.00 to 5.52 |  | 
COc1ccc(C)c(C)c1C1(C(=O)NS(=O)(=O)c2cccc3[nH]ncc23)CC1 [II-77] | > 5.52 | +++ (≥350) | > 5.52 | > 150 |  |  |  |  |  | 
CCc1ccncc1C1(C(=O)NS(=O)(=O)c2cccc3ncccc23)CC1 [GIII-6] |  |  |  |  | + (<150) | < 5.00 | < 50 | < 5.00 |  | 
O=C(NS(=O)(=O)c1cccc(C(F)(F)F)c1)C1(c2ccc(Cl)cc2Cl)CC1 [Example III-15, 1-(2,4-dichlorophenyl)-N-[3-(trifluoromethyl)benzene-1-sulfonyl]cyclopropane-1-carboxamide] | 5.00 to 5.52 | ++ (≥150 and <350) | 5.00 to 5.52 | < 50 |  |  |  |  |  | 
CCC(C)c1ccc(OC)c(C2(C(=O)NS(=O)(=O)c3cccc4c3CCCN4)CCC2)c1 (stereo not drawn) [II-22] | 5.00 to 5.52 | +++ (≥350) | > 5.52 | > 150 |  |  |  |  |  | 
CC(=O)N1CCC(S(=O)(=O)NC(=O)C2(c3ccc(Cl)cc3Cl)CC2)CC1 [Example III-78, N-(1-acetylpiperidine-4-sulfonyl)-1-(2,4-dichlorophenyl)cyclopropane-1-carboxamide] | < 5.00 | + (<150) | < 5.00 | < 50 |  |  |  |  |  | 
Cc1ccc2c(S(=O)(=O)NC(=O)C3(c4cc(N5CCCC5)cnc4OCC(C)C)CC3)cccc2n1 [Example GI-69, 1-[2-(2-methylpropoxy)-5-(pyrrolidin-1-yl)pyridin-3-yl]-N-(2-methylquinoline-5-sulfonyl)cyclopropane-1-carboxamide] |  |  |  |  | +++ (≥350) | > 5.52 | > 150 | > 5.52 |  | 
COc1ccc(C2CCC2)cc1C1(C(=O)NS(=O)(=O)c2cccc3c2CCN3)CC1 [Example I-54, 1-(5-cyclobutyl-2-methoxyphenyl)-N-(2,3-dihydro-1H-indole-4-sulfonyl)cyclopropane-1-carboxamide] | > 5.52 | +++ (≥350) | > 5.52 | > 150 |  |  |  |  |  | 
COc1ncc(C2(C(=O)NS(=O)(=O)c3cccc4c3CCCN4)CC2)c(OC)n1 [GIII-12] |  |  |  |  | + (<150) | < 5.00 | < 50 | < 5.00 |  | 
CCOc1ncc(C2CCC2)cc1C1(C(=O)NS(=O)(=O)c2cccc3ncccc23)CC1 [Example GI-114, 1-(5-cyclobutyl-2-ethoxypyridin-3-yl)-N-(quinoline-5-sulfonyl)cyclopropane-1-carboxamide] |  |  |  |  | +++ (≥350) | > 5.52 | > 150 | 5.00 to 5.52 |  | 
COc1ccc(C2CCC2)cc1C1(C(=O)NS(=O)(=O)c2cccc3c2CCN3C)CC1 [II-40] | 5.00 to 5.52 | +++ (≥350) | 5.00 to 5.52 | > 150 |  |  |  |  |  | 
COc1ccc(C(F)(F)F)cc1C1(C(=O)NS(=O)(=O)c2cccc3c2CCCN3)CC1 [II-28] | > 5.52 | +++ (≥350) | > 5.52 | > 150 |  |  |  |  |  | 
COc1ncc(C2(C(=O)NS(=O)(=O)c3cccc4ccccc34)CC2)c(OC)n1 [GII-1, 1-(2,4-dimethoxypyrimidin-5-yl)-N-(naphthalene-1-sulfonyl)cyclopropane-1-carboxamide] |  |  |  |  | ++ (≥150 and <350) |  | < 50 |  | ++^a | ++^a
CC(C)Oc1ccc(C2CCC2)nc1C1(C(=O)NS(=O)(=O)c2cccc3[nH]ccc23)CC1 [Example GI-38, 1-{6-cyclobutyl-3-[(propan-2-yl)oxy]pyridin-2-yl}-N-(1H-indole-4-sulfonyl)cyclopropane-1-carboxamide] |  |  |  |  | +++ (≥350) | > 5.52 | > 150 | > 5.52 |  | 
CC(C)Oc1ncc(N(C)C)cc1C1(C(=O)NS(=O)(=O)c2cccc3[nH]ccc23)CC1 [Example GI-73, 1-{5-(dimethylamino)-2-[(propan-2-yl)oxy]pyridin-3-yl}-N-(1H-indole-4-sulfonyl)cyclopropane-1-carboxamide] |  |  |  |  | +++ (≥350) | > 5.52 | > 150 | 5.00 to 5.52 |  | 
COc1ccc(C)cc1C1(C(=O)NS(=O)(=O)c2cccc3[nH]ccc23)CC1 [Example I-49, N-(1H-indole-4-sulfonyl)-1-(2-methoxy-5-methylphenyl)cyclopropane-1-carboxamide] | > 5.52 | +++ (≥350) | > 5.52 | > 150 |  |  |  |  |  | 
